We go through 14 substances from patent US8329645B2, “Polymyxin derivatives and uses thereof” (priority 2008, dated 2012).

For assay [1], the system named is E. coli IH3080. The assay is described as follows: Growth inhibition around wells on LB agar plates. It is filed as cell-based, Escherichia coli. The procedure:
Peptides synthesized in Example 1, all carrying at least two (2) but not more than three (3) positive charges, were studied for their ability to inhibit the growth of E. coli. This was tested employing LB agar (LB Agar Lennox, Difco, BD, Sparks, Md., U.S.A) plates. The indicator organism E. coli IH3080 (K1:O018) was an encapsulated strain originally isolated from a neonate suffering from meningitis (Vaara et al. 1984) and obtained from National Public Health Institute, Helsinki, Finland.
(§1) From an overnight-grown culture of IH3080 on LB agar, a suspension of approx. 10^8 cells/ml was prepared in 0.9% NaCl. Aliquots of this suspension were then pipetted on the agar plates and the plates were gently shaken to spread the suspension evenly on the entire surface of the plate. Thereafter, the unabsorbed part of the suspension was removed by using a Pasteur pipette. After the surface had dried, small wells (diameter, 2 mm) were drilled on the plates (five wells per plate) by using a sterile sharp-edged narrow metal tube, single-use pipette tip, and vacuum suction. An alternative method used a swab to spread the inoculum. […] Controls included 0.9% NaCl solution without the compound to be tested. The plates were then incubated for 18 h at 37° C. whereafter the diameters of growth inhibition zones around each well were measured; the diameter of the well itself was not reduced. Finally, the diameters were converted to surface areas of growth inhibition (in square mm).

Assay [2] relates to Acinetobacter baumannii ATCC 19606. The assay is described as follows: Growth inhibition around wells on LB agar plates. As to conditions: A. baumannii ATCC 19606. The format is cell-based. As for the experimental part:
as §1
(§2) Direct antibacterial activity of sixteen NAB compounds against Acinetobacter baumannii ATCC 19606 and Pseudomonas aeruginosa ATCC 27853 was tested by using the susceptibility determination method described in Example 2. Five compounds (NAB7062, NAB734, NAB737, NAB739, and NAB740) had very notable activity against A. baumannii. […] The antibacterial activity of NAB739 and NAB740 were as strong as or even stronger than that of polymyxin B.

For assay [3], the system named is Pseudomonas aeruginosa ATCC 27853. The assay is described as follows: Growth inhibition around wells on LB agar plates. The conditions noted are these: Ps. aeruginosa ATCC 27853. It is filed as cell-based. The procedure:
(§3) From an overnight-grown culture of IH3080 on LB agar, a suspension of approx. 10^8 cells/ml was prepared in 0.9% NaCl. Aliquots of this suspension were then pipetted on the agar plates and the plates were gently shaken to spread the suspension evenly on the entire surface of the plate. Thereafter, the unabsorbed part of the suspension was removed by using a Pasteur pipette. After the surface had dried, small wells (diameter, 2 mm) were drilled on the plates (five wells per plate) by using a sterile sharp-edged narrow metal tube, single-use pipette tip, and vacuum suction. An alternative method used a swab to spread the inoculum. Samples (4 μl and 10 μl) of the peptide solution in 0.9% NaCl (at concentrations of 1 μg/ml and 0.1 μg/ml) were then pipetted to the wells and the sample fluids were allowed to absorb. Controls included 0.9% NaCl solution without the compound to be tested. The plates were then incubated for 18 h at 37° C. whereafter the diameters of growth inhibition zones around each well were measured; the diameter of the well itself was not reduced. Finally, the diameters were converted to surface areas of growth inhibition (in square mm).
as §2

For assay [4], the system named is E. coli IH3080. The assay is described as follows: Sensitization to rifampin: growth inhibition around wells on LB plates containing rifampin. It is filed as cell-based, Escherichia coli. As for the experimental part:
as §3

Another assay deals with A. baumannii ATCC 19606. The description is as above. The format is cell-based, Acinetobacter baumannii. As to conditions: 4 μg.
In assay [5] the test system is Ps. aeruginosa ATCC 27853. The description is as above. The conditions noted are these: 4 μg. The format is cell-based, Pseudomonas aeruginosa.
Where [6] appears, read: 4 μg of compound, rifampin 0 μg/ml.
Where [7] appears, read: 4 μg of compound, rifampin 0.1 μg/ml.
Where [8] appears, read: 4 μg of compound, rifampin 1.0 μg/ml.

For “OA-Thr-Ser-cy[Dab-Dab-DPhe-Leu-Dab-Dab-Thr-] [NAB 743]”, the “growth inhibition around a well” value is 38 square millimeters in the assay on E. coli IH3080 [1] (4 μg of compound per well); 79 square millimeters in the assay with E. coli IH3080 [1] (10 μg of compound per well); 0 square millimeters in assay [2] (4 μg); 0 square millimeters in assay [2] (10 μg); 28 square millimeters in assay [3] (4 μg); 38 square millimeters in assay [3] (10 μg). Further, the “growth inhibition around a well in the presence of rifampin” value in the assay on E. coli IH3080 [4] (setting [6]) worked out at 38 square millimeters; in the assay on E. coli IH3080 [4] (setting [7]), 133 square millimeters; in the assay on E. coli IH3080 [4] (setting [8]) it was 227 square millimeters; in the assay with A. baumannii ATCC 19606 (rifampin 0 μg/ml), 0 square millimeters; in the assay with A. baumannii ATCC 19606 (rifampin 0.1 μg/ml), 38 square millimeters; with A. baumannii ATCC 19606 (rifampin 0.3 μg/ml), 227 square millimeters. In addition, the “growth inhibition around a well in the presence of rifampin” value in assay [5] (rifampin 0 μg/ml), in assay [5] (rifampin 0.1 μg/ml) and in assay [5] (rifampin 0.3 μg/ml) was 28 square millimeters each time.
Turning to Deacylpolymyxin B [reference compound], in the assay with E. coli IH3080 [1] (10 μg of compound per well), the “growth inhibition around a well” value is 113 square millimeters. For the same substance, the results for the “growth inhibition around a well in the presence of rifampin” value in the assay with E. coli IH3080 [4] (setting [6]), with E. coli IH3080 [4] (setting [7]) and in the assay with E. coli IH3080 [4] (setting [8]) were 57 square millimeters, 79 square millimeters and 127 square millimeters, respectively.
As for “MHA-Thr-Abu-cy[Dab-Dab-DPhe-Leu-Dab-Dab-Thr-] [NAB 706]”, the “growth inhibition around a well” value with E. coli IH3080 [1] (4 μg of compound per well) worked out at 5 square millimeters; in the assay with E. coli IH3080 [1] (10 μg of compound per well), 7 square millimeters. For the same substance, the “growth inhibition around a well in the presence of rifampin” value in the assay on E. coli IH3080 [4] (setting [6]) was found to be 5 square millimeters; in the assay on E. coli IH3080 [4] (setting [7]), 79 square millimeters; in the assay on E. coli IH3080 [4] (setting [8]), 133 square millimeters.
Turning to “Polymyxin B heptapeptide [reference compound]”, the “growth inhibition around a well” value in the assay on E. coli IH3080 [1] (4 μg of compound per well) and in the assay with E. coli IH3080 [1] (10 μg of compound per well) was 0 square millimeters each time. Moreover, the “growth inhibition around a well in the presence of rifampin” value is 0 square millimeters with E. coli IH3080 [4] (setting [6]), 0 square millimeters in the assay on E. coli IH3080 [4] (setting [7]) and 38 square millimeters in the assay on E. coli IH3080 [4] (setting [8]).
For the substance “MHA-Abu-Thr-Abu-cy[Dab-Dab-DPhe-Leu-Dab-Dab-Thr-] [NAB 707]”, the entries for the “growth inhibition around a well” value with E. coli IH3080 [1] (4 μg of compound per well) and in the assay on E. coli IH3080 [1] (10 μg of compound per well) were 5 square millimeters and 7 square millimeters, respectively. In addition, the results for the “growth inhibition around a well in the presence of rifampin” value with E. coli IH3080 [4] (setting [6]), in the assay with E. coli IH3080 [4] (setting [7]) and in the assay on E. coli IH3080 [4] (setting [8]) were 5 square millimeters, 87 square millimeters and 113 square millimeters, respectively.
For “OA-Thr-Abu-cy[Dab-Lys-DPhe-Leu-Dab-Dab-Thr-] [NAB 731]”, the “growth inhibition around a well” value with E. coli IH3080 [1] (4 μg of compound per well) and in the assay with E. coli IH3080 [1] (10 μg of compound per well) was 0 square millimeters each time. The “growth inhibition around a well in the presence of rifampin” value in the assay on E. coli IH3080 [4] (setting [6]) is recorded as 0 square millimeters; in the assay with E. coli IH3080 [4] (setting [7]) it was 0 square millimeters; in the assay on E. coli IH3080 [4] (setting [8]) it was 5 square millimeters; in the assay on E. coli IH3080 [4] (10 μg of compound, rifampin 1.0 μg/ml), 22 square millimeters.
With “OA-Thr-Abu-cy[Dab-Abu-DPhe-Leu-Dab-Dab-Thr-] [NAB 710]”, the “growth inhibition around a well” value was determined as 0 square millimeters with E. coli IH3080 [1] (4 μg of compound per well) and 7 square millimeters in the assay with E. coli IH3080 [1] (10 μg of compound per well). Further, the “growth inhibition around a well in the presence of rifampin” value in the assay with E. coli IH3080 [4] (setting [6]) was 0 square millimeters; with E. coli IH3080 [4] (setting [7]), 7 square millimeters; in the assay with E. coli IH3080 [4] (setting [8]) it was 13 square millimeters.
As to “OA-Thr-Dab-cy[Dab-Abu-DPhe-Leu-Dab-Dab-Thr-] [NAB 715]”, the “growth inhibition around a well” value in the assay on E. coli IH3080 [1] (4 μg of compound per well) and in the assay on E. coli IH3080 [1] (10 μg of compound per well) was 0 square millimeters throughout. The results for the “growth inhibition around a well in the presence of rifampin” value in the assay with E. coli IH3080 [4] (setting [6]), in the assay with E. coli IH3080 [4] (setting [7]) and in the assay with E. coli IH3080 [4] (setting [8]) were 0 square millimeters, 0 square millimeters and 33 square millimeters, respectively.
For the substance “OA-Thr-Abu-cy[Dab-Dab-DPhe-Leu-Dab-Abu-Thr-] [NAB 709]”, the “growth inhibition around a well” value with E. coli IH3080 [1] (4 μg of compound per well) and with E. coli IH3080 [1] (10 μg of compound per well) was 0 square millimeters each time. For the same substance, the “growth inhibition around a well in the presence of rifampin” value in the assay on E. coli IH3080 [4] (setting [6]) was found to be 0 square millimeters; in the assay on E. coli IH3080 [4] (setting [7]), 0 square millimeters; with E. coli IH3080 [4] (setting [8]) it was 13 square millimeters.
On to Deacylcolistin [reference compound], for which, in the assay on E. coli IH3080 [1] (10 μg of compound per well), the “growth inhibition around a well” value amounted to 95 square millimeters. For the same substance, the “growth inhibition around a well in the presence of rifampin” value with E. coli IH3080 [4] (setting [6]) amounted to 79 square millimeters; in the assay on E. coli IH3080 [4] (setting [7]), 87 square millimeters; in the assay with E. coli IH3080 [4] (setting [8]), 127 square millimeters.
For the substance “MHA-Dab-Thr-Dab-cy[Dab-Dab-DPhe-Leu-Abu-Abu-Thr-] [NAB 721]”, the “growth inhibition around a well” value with E. coli IH3080 [1] (4 μg of compound per well) and with E. coli IH3080 [1] (10 μg of compound per well) was 0 square millimeters each time. Further, the entries for the “growth inhibition around a well in the presence of rifampin” value with E. coli IH3080 [4] (setting [6]), in the assay with E. coli IH3080 [4] (setting [7]) and in the assay on E. coli IH3080 [4] (setting [8]) were 0 square millimeters, 13 square millimeters and 28 square millimeters, respectively.
On to “OA-DAla-DAla-cy[Dab-Dab-DPhe-Leu-Dab-Dab-Thr-] [NAB 733]”, for which the “growth inhibition around a well” value with E. coli IH3080 [1] (4 μg of compound per well) and in the assay with E. coli IH3080 [1] (10 μg of compound per well) was 0 square millimeters each time. The entries for the “growth inhibition around a well in the presence of rifampin” value in the assay with E. coli IH3080 [4] (setting [6]), in the assay with E. coli IH3080 [4] (setting [7]) and in the assay on E. coli IH3080 [4] (setting [8]) were 0 square millimeters, 95 square millimeters and 113 square millimeters, respectively.
In the case of “OA-Thr-DThr-cy[Dab-Dab-DPhe-Thr-Dab-Dab-Thr-] [NAB 737]”, the “growth inhibition around a well” value was 38 square millimeters in assay [2] (4 μg), 79 square millimeters in assay [2] (10 μg), 0 square millimeters in assay [3] (4 μg) and 28 square millimeters in assay [3] (10 μg). Also, the “growth inhibition around a well in the presence of rifampin” value with E. coli IH3080 [4] (setting [6]) is on record as 133 square millimeters; in the assay with E. coli IH3080 [4] (setting [7]), 177 square millimeters; in the assay with E. coli IH3080 [4] (setting [8]), 201 square millimeters; in the assay with A. baumannii ATCC 19606 (rifampin 0 μg/ml), 38 square millimeters; in the assay with A. baumannii ATCC 19606 (rifampin 0.1 μg/ml), 201 square millimeters; with A. baumannii ATCC 19606 (rifampin 0.3 μg/ml) it was 283 square millimeters. The “growth inhibition around a well in the presence of rifampin” value in assay [5] (rifampin 0 μg/ml) stood at 0 square millimeters; in assay [5] (rifampin 0.3 μg/ml), 20 square millimeters.
Regarding “OA-Abu-cy[Dab-Dab-DPhe-Leu-Dab-Dab-Thr-] [NAB 713]”, the “growth inhibition around a well” value with E. coli IH3080 [1] (4 μg of compound per well) and in the assay with E. coli IH3080 [1] (10 μg of compound per well) was 0 square millimeters in each case. Moreover, the “growth inhibition around a well in the presence of rifampin” value was 0 square millimeters in the assay on E. coli IH3080 [4] (setting [6]), 20 square millimeters in the assay on E. coli IH3080 [4] (setting [7]) and 38 square millimeters in the assay on E. coli IH3080 [4] (setting [8]).
